Reference: patent US20210253705A1, “METHODS AND AGENTS FOR TREATING ORGAN INJURY AND TRANSPLANT REJECTION” (The Regents of the University of California, priority 2020, published 2021)

System: BALB/c airway allografts in C57BL/6 recipients
Test: Heterotopic subcutaneous tracheal/airway transplantation model of allograft rejection
Format: in vivo, mice
Details: recipients treated with CCR4 inhibitor, day 14
Method: Each mouse was subcutaneously transplanted with two tracheas. Small molecule CCR4 inhibitor or antagonist C 021 dihydrochloride (Cat #3581, Tocris Bio-Techne, Minneapolis, Minn., USA) was resuspended in sterile DMSO to 100 mg/ml and diluted further in 1×PBS to be administered as intraperitoneal (i.p.) injections at 50 mg/kg daily starting at day −1 prior to tracheal transplantation until day 14 when allografts were harvested for rejection analysis.
Histopathological Evaluation of Airway and Lung Transplants. Airway and lung graft tissues were fixed overnight in 4% paraformaldehyde, processed, paraffin-embedded, sectioned and stained with hematoxylin and eosin (H&E) or Elastin Trichrome. Three independent blinded reviewers calculated the degree of airway injury using a histological scoring system. All qualitative histological changes were evaluated and the total murine rejection score was calculated based on four pathological criteria: (a) airway lining epithelial loss, (b) deposition of extracellular matrix (ECM), (c) leukocyte infiltration, and (d) luminal fibro-obliteration due to granulation tissue formation and/or fibrosis. Each process was scored on a scale of 0-4 (0=normal, 1=mild, 2=moderate, 3=severe and 4=very severe) and added together for a total rejection score. […] Images were taken by Zeiss Axioskop 2 plus microscope and analyzed with AxioVision 4.2 imaging software. […]

For `COc1cc2nc(N3CCC(N4CCCCC4)CC3)nc(NC3CCCCCC3)c2cc1OC.Cl.Cl` [C 021 dihydrochloride, 2-[1,4′-bipiperidin]-1′-yl-N-cycloheptyl-6,7-dimethoxy-4-quinazolinamine dihydrochloride], the “H&E histology of airway allografts” value was “virtually normal epithelium and minimal matrix deposition without fibro-obliteration”.
